Data: patent US7759345B2, “Antitumoral derivatives of ET-743” (priority 2001, dated 2010)
Read-outs that look alike come from different tables or passages of the source.

Experiments:
A-549 [1] = assay: Inhibition of cell growth by counting cells, A-549; format: cell-based, human; settings: Homo sapiens, A549, 72 h; three days of incubation; read-out: IC50 (molar) A-549
Procedure: (§1) 1°.—Inhibition of Cell Growth by Counting Cells.
(§2) This form of the assay employs 24 well multidishes of 16 mm diameter (Bergeron, 1984; Schroeder, 1981). The tumor cell lines employed are: P-388 (ATCC CCL 46), suspension culture of a lymphoid neoplasm from a DBA/2 mouse; A-549 (ATCC CCL 185), monolayer culture of a human lung carcinoma; HT-29 (ATCC HTB-38), monolayer culture of a human colon carcinoma; MEL-28 (ATCC HTB-72), monolayer culture of a human melanoma and DU-145 (ATCC HTB-81), monolayer culture of a human prostate carcinoma.
(§3) Cells were maintained, in logarithmic phase of growth in Eagle's Minimum Essential Medium, with Earle's Balanced Salts, with non-essential amino acids, with 2.0 mM L-Glutamine, without sodium bicarbonate (EMEM/neaa), supplemented with 10% Fetal Calf Serum (FCS), 10^−2 M. sodium bicarbonate and 0.1 U/l penicillin G+0.1 g/l streptomycin sulfate. For the experiments, cells are harvested from subconfluent cultures using trypsin and resuspended in fresh medium before plating.
(§4) A-549, HT-29, MEL-28 and DU-145 cells were seeded into 16 mm diameter wells at 1×10^4 cells per well in 1 ml aliquots of EMEM 5% FCS containing different concentrations of the sample to be tested. A separate set of cultures without drug was seeded as control of growth, to ensure that cells remained in exponential phase of growth. All determinations are carrying out in duplicate. After three days of incubation at 37° C., 5% CO2 in a 98% humid atmosphere cells were stained with 0.1% crystal violet. An approximately IC50 was determined by comparing the growth in wells with drug to the growth in wells control.
(§5) For quantifying the activity, after the incubation time, cells are trypsinized and counted in a Coulter Counter ZM. All counts (net cells per well), represent the average of duplicate wells. % G, percent of growth relative to cultures without drug. The results of these assays are used to generate dose-response curves from which more precise IC50 values are determined (sample concentration which produces 50% cell growth inhibition).
(§6) Obtained results may predict the usefulness of a certain drug as a potential cancer treatment. For this technique, compounds which show IC50 values smaller than 1 μg/ml are selected to continue with further studies. IC50's data allow to predict that not only could a drug be cystostatic, but also it could have a potential in terms of tumor reduction.

HT-29 [2] = assay: Inhibition of cell growth by counting cells, HT-29; format: cell-based, human; settings: Homo sapiens, HT-29, 72 h; three days of incubation; read-out: IC50 (molar) HT-29
Procedure: as §1, §2, §3, §4, §5, §6

A-549 [3] = assay: Inhibition of cells growth by colorimetric assay (SRB), A-549; format: cell-based; settings: for GI50 / LC50 (concentration for 50% cell killing): Homo sapiens, A549, 48 h; for GI50: read-out: A-549 GI50; for LC50 (concentration for 50% cell killing): read-out: A-549 LC50, SRB assay, 48 hours exposure
Procedure: (§7) 2°.—Inhibition of Cells Growth by Colorimetric Assay.
(§8) A colorimetric type of assay, using sulforhodamine B (SRB) reaction has been adapted for a quantitative measurement of cell growth and viability [following the technique described by Philip Skehan, et al. (1990), New colorimetric cytotoxicity assay for anticancer drug screening, J. Natl. Cancer Inst., 82:1107-1112]
(§9) This form of the assay employs 96 well cell culture microplates of 9 mm diameter (Faircloth, 1988; Mosmann, 1983). Most of the cell lines are obtained from American Type Culture Collection (ATCC) derived from different human cancer types.
(§10) Cells are maintained in RPMI 1640 10% FBS, supplemented with 0.1 g/l penicillin and 0.1 g/l streptomycin sulfate and then incubated at 37° C., 5% CO2 and 98% humidity. For the experiments, cells were harvested from subconfluent cultures using trypsin and resuspended in fresh medium before plating.
(§11) Cells are seeded in 96 well microtiter plates, at 5×10^3 cells per well in aliquots of 195 μl medium, and they are allowed to attach to the plate surface by growing in drug free medium for 18 hours. Afterward, samples are added in aliquots of 5 μl in a ranging from 10 to 10^−8 μg/ml, dissolved in DMSO/EtOH/PBS (0.5:0.5:99). After 48 hours exposure, the antitumor effect are measured by the SRB methodology: cells are fixed by adding 50 μl of cold 50% (wt/vol) trichloroacetic acid (TCA) and incubating for 60 minutes at 4° C. Plates are washed with deionized water and dried. One hundred μl of SRB solution (0.4% wt/vol in 1% acetic acid) is added to each microtiter well and incubated for 10 minutes at room temperature. Unbound SRB is removed by washing with 1% acetic acid. Plates are air dried and bound stain is solubilized with Tris buffer. Optical densities are read on a automated spectrophotometric plate reader at a single wavelength of 490 nm.
(§12) The values for mean+/−SD of data from triplicate wells are calculated. Some parameters for cellular responses can be calculated: GI=growth inhibition, TGI=total growth inhibition (cytostatic effect) and LC=cell killing (cytotoxic effect).
as §6, with “GI50” for “IC50”, “10” for “1”, “GI50's” for “IC50's”

HT-29 [4] = assay: Inhibition of cells growth by colorimetric assay (SRB), HT-29; format: cell-based; settings: for GI50 / LC50 (concentration for 50% cell killing): Homo sapiens, HT-29, 48 h
Procedure: as §7, §8, §9, §10, §11, §12
as §6, with “GI50” for “IC50”, “10” for “1”, “GI50's” for “IC50's”

[5] = SRB assay, 48 hours exposure, read-out: HT-29 GI50
[6] = read-out: HT-29 LC50, SRB assay, 48 hours exposure

| Structure (SMILES) | IC50 (A-549 [1]) [nM] | IC50 (HT-29 [2]) [nM] | GI50 (A-549 [3]; SRB assay, 48 hours exposure) [nM] | LC50 (concentration for 50% cell killing) (A-549 [3]) [nM] | A-549 TGI (A-549 [3]; SRB assay, 48 hours exposure) | GI50 (HT-29 [4]; [5]) [nM] | LC50 (concentration for 50% cell killing) (HT-29 [4]; [6]) [nM] | HT-29 TGI (HT-29 [4]; SRB assay, 48 hours exposure) | further results |
| --- | --- | --- | --- | --- | --- | --- | --- | --- | --- |
| COc1cc2c(cc1OC(=O)OC(C)(C)C)CCN[C@]21CS[C@@H]2c3c(OC(=O)C(F)(F)F)c(C)c4c(c3[C@H](COC1=O)N1C2[C@H]2c3c(cc(C)c(OC)c3OC(=O)C(F)(F)F)C[C@@H]([C@@H]1C#N)N2C)OCO4 (some centres unmarked) [Compound 109] | 0.98 | 0.98 |  |  |  |  |  |  |  |
| COc1cc2c(cc1OC(=O)OC(C)(C)C)CCN[C@]21CS[C@@H]2c3c(OC(=O)OC(C)(C)C)c(C)c4c(c3[C@H](COC1=O)N1C2[C@H]2c3c(cc(C)c(OC)c3OC(=O)OC(C)(C)C)C[C@@H]([C@@H]1C#N)N2C)OCO4 (some centres unmarked) [Compound 110] | 0.0972 | 0.0972 |  |  |  |  |  |  |  |
| CCCC(=O)Oc1c(C)c2c(c3c1[C@H]1SC[C@]4(NCCc5cc(OC(=O)OC(C)(C)C)c(OC)cc54)C(=O)OC[C@@H]3N3C1[C@H]1c4c(cc(C)c(OC)c4OC(=O)CCC)C[C@@H]([C@@H]3C#N)N1C)OCO2 (some centres unmarked) [Compound 112] | 10.3 | 10.3 |  |  |  |  |  |  |  |
| COc1cc2c(cc1OC(=O)OC(C)(C)C)CCN[C@]21CS[C@@H]2c3c(OC(=O)/C=C/c4ccccc4)c(C)c4c(c3[C@H](COC1=O)N1C2[C@H]2c3c(cc(C)c(OC)c3OC(=O)/C=C/c3ccccc3)C[C@@H]([C@@H]1C#N)N2C)OCO4 (some centres unmarked) [Compound 114] | 9.18 | 9.18 |  |  |  |  |  |  |  |
| C=CCOC(=O)Oc1c(C)c2c(c3c1[C@H]1SC[C@]4(NCCc5cc(OC(=O)OC(C)(C)C)c(OC)cc54)C(=O)OC[C@@H]3N3C1[C@H]1c4c(cc(C)c(OC)c4O)C[C@@H]([C@@H]3C#N)N1C)OCO2 (some centres unmarked) [Compound 115] | 0.11 | 0.11 |  |  |  |  |  |  |  |
| COc1cc2c(cc1O)CCN(C)[C@]21CS[C@@H]2c3c(OC(C)=O)c(C)c4c(c3[C@H](COC1=O)N1C2[C@H]2c3c(cc(C)c(OC)c3O)C[C@@H]([C@@H]1C#N)N2C(=O)OC(C)(C)C)OCO4 (some centres unmarked) [Compound 200] |  |  | 23 | 115 | 3.45E-08 | 23 | 1150 | 8.05E-09 |  |
| COc1cc2c(cc1OC(C)=O)CCN[C@]21CS[C@@H]2c3c(OC(C)=O)c(C)c4c(c3[C@H](COC1=O)N1C2[C@@H]2N[C@@H](Cc3cc(C)c(OC)c(O)c32)[C@@H]1O)OCO4 (some centres unmarked) [Compound 210] |  |  |  | 38000 | 5.06E-13 |  | 63300 | 6.33E-08 |  |
| CCCC(=O)Oc1cc2c(cc1OC)[C@@]1(CS[C@@H]3c4c(OC(C)=O)c(C)c5c(c4[C@H](COC1=O)N1C3[C@@H]3N[C@@H](Cc4cc(C)c(OC)c(O)c43)[C@@H]1O)OCO5)NCC2 (some centres unmarked) [Compound 211] |  |  | 0.00367 | 61100 | 6.11E-09 | 0.00122 | 61100 | 1.22E-12 |  |
| CC(=O)Oc1c(C)c2c(c3c1[C@H]1SCC(=O)C(=O)OC[C@@H]3N3C1[C@H]1c4c(cc(C)c(O)c4O)C[C@@H]([C@@H]3C#N)N1C)OCO2 (some centres unmarked) [Compound 219] |  |  | 8.24 | 16500 | 1.65E-06 | 82.4 | 16500 | 1.65E-06 |  |
| COc1cc2c(cc1O)CCN[C@]21CS[C@@H]2c3c(OC(C)=O)c(C)c4c(c3[C@H](COC1=O)N1C2[C@H]2c3c(cc(C)c(O)c3O)C[C@@H]([C@@H]1C#N)N2C)OCO4 (some centres unmarked) [Compound 220] |  |  |  | 6610 | 3.96E-07 |  |  |  | GI50 (A-549 [3]): 132 nM; GI50 (HT-29 [4]; read-out: H-T29 GI50): 132 nM; LC50 (concentration for 50% cell killing) (HT-29 [4]; read-out: H-T29 LC50, SRB assay, 48 hours exposure): 1320 nM; H-T29 TGI (HT-29 [4]; SRB assay, 48 hours exposure): 5.28E-07 |
